Assay [1] concerns Schizosaccharomyces pombe. Briefly: MIC serial dilution assay. In kind it is cell-based. The conditions noted are these: Schizosaccharomyces pombe DSM70572; overnight, 30 °C; reference nystatin 1 mg/mL; read-out: Minimum Inhibitory Concentration (MIC). The procedure:
(§1) Compounds 1, 2, 4 and 5 were dissolved in MeOH (1 mg/mL) for the antimicrobial activity assay, while compound 3 was dissolved in MeOH: DMSO 9+1 (1 mg/mL). The solvents were also used as negative controls.
(§2) Minimum inhibitory concentrations (MIC) were determined in a serial dilution assay, as described previously; a detailed protocol can be found in the Supporting Information. The compounds (1 mg/mL) were diluted to a range of 66.7 to 0.52 µg/mL and incubated with the test organisms overnight. Inhibition of growth was visually evaluated the next day: the MIC is defined as the lowest concentration of the test compound where no growth of the test organism was observed. Various test organisms of fungal and bacterial origin were tested to cover a broad range of microorganisms. This selection is also being used as a standard test panel in our attempts to discover new anti-infectives, as it represents a broad spectrum of pathogens of clinical interest, as well as sensitive indicator strains (bacteria: Bacillus subtilis, Staphylococcus aureus, Micrococcus luteus, Chromobacterium violaceum, Escherichia coli and Pseudomonas aeruginosa; mycobacteria: Mycolicibacterium smegmatis and fungi: Candida albicans, Schizosaccharomyces pombe, Mucor hiemalis, Pichia anomala and Rhodotorula glutinis).
(§3) Protocol: Antimicrobial Activi ty Assay
(§4) The assay was conducted as a minimum inhi bitory concentration (MIC) assay in 96-well ro und-bottom mi crotiter pl ate s usi ng the p ar ameter s su mm ari zed i n T a bl e S 1 and as already described i n [S1].
(§5) Stocks of the test organi sms were generated by growing the organisms o ver ni ght i n 50 mL shaki ng fl asks fi ll ed wi th 25 mL of the growth medi um at 140 rpm (for media and temperatures see Table S1). If the organisms were well grown the ne xt day, which was checked by occurrence of an optical density (OD)>30 of the suspension (OD600 nm for bacteria, OD548 nm for fungi and M. smegma tis) , aliquots of these were stored i n 1.5 mL reaction tube s in a freezer at −80 °C for up to 12 mo nths . Upon use, aliquots were unth awed and the OD of the suspension measured and adjusted by diluting with the respective growth medi um. OD600 nm w as adj usted to 0.01 and OD548 nm to 0.1.
(§6) Subse que ntly, 150 µL o f the adjusted suspensions were added to all wells of a 96-wel l microtiter pl ate (one test organi sm per plate). In row A, additional 130 µL of suspensions plus 20 µL of the test compounds (1 mg/mL) and the controls (one compound/column) were added. MeOH as well as MeOH:DMSO 9+1 were used as negative controls, while different positive controls (refer ences) were used for the test organisms (see Tabl e S1). Then, starti ng from row A, 150 µ L of the suspension were transferred to the next row, the contents thoroughly mixed, and 150 µ L transferred to the following row.
(§7) The remaining 150 µ L after row H were discarded. […]
(§8) compounds, ranging from 66.7 µg/mL i n row A to 0.52 µg/mL i n row H.
(§9) The microtiter plates were then incubated overnight o n a microplate shaker at 800 rpm at 30 or 37 °C (see Table S1) and were visually evaluated the next day. The MIC is defined as the lowest concentration were no growth of the test organism was o bserved. A lower MIC thus corresponds to a higher antimicrobial activity of the test compound.
(§10) Table S1: MIC assay ex per i men t parameters test organism strain No. growth incubation positive control (reference) […]
Schizosaccharomyces DSM70572 MYC 3 30 nyst ati n 1.0 mg/mL […]
(§11) Rhodotorula glutinis DSM10134 MYC 3 30 nyst ati n 1.0 mg/mL
(§12) 1 MHB: Müller-Hinton Broth (SN X927.1, Ca r l Roth GmbH, Karlsruhe, Germany) 2 7H9+ADC: Middlebrook 7H9 Broth Base + Middlebrook ADC Growth Supplement (SN M0678+M0553, Merck, Darmstadt, Germany)
(§13) 3 MYC: 1 % w/v, bacto peptone, 1% w/v yeast extract, 2 % w /v glycerol, pH 6.3 [S1] Helaly, S.E.; Ashrafi, S.; Teponno, R.B.; Bernecker, S.; Dababat, A.A.; Maier, W.; Stadler, M.
(§14) Nematicidal Cyclic Lipodepsipeptides and a Xanthocillin Derivative from a Phaeosphariaceous […]

Assay [2] concerns Candida albicans. Briefly: MIC serial dilution assay. The class given is cell-based. The conditions noted are these: Candida albicans DSM1665; overnight, 30 °C; reference nystatin 1 mg/mL; read-out: Minimum Inhibitory Concentration (MIC). Here is the method: as §1, §2, §3, §4, §5, §6, §7, §8, §9, §10
Candida albicans DSM1665 MYC 3 30 nyst ati n 1.0 mg/mL […]
as §11, §12, §13, §14

≈ marks a conversion by molar mass, not a printed value.

Regarding `Oc1cccc2c3c(ccc12)-c1ccc(O)c2c(O)ccc-3c12` [Compound 1, viridistratin A], the MIC in assay [1] is 66.7 µg/mL (≈ 222 µM); in assay [2] it was over 66.7 µg/mL.
As for `COc1cccc2c3c(ccc12)-c1ccc(O)c2c(O)ccc-3c12` [Compound 2, viridistratin B], the MIC was 33.3 µg/mL (≈ 106 µM) in assay [1] and over 66.7 µg/mL in assay [2].
On the same counts, the results for `COc1cccc2c3c(ccc12)-c1ccc(O)c2c(OC)ccc-3c12` [Compound 3, viridistratin C] are over 66.7 µg/mL and over 66.7 µg/mL.
For `O=C1C[C@H]2C(=C3CCC(=O)c4c(O)ccc2c43)c2cccc(O)c21` [Compound 4, truncatone A], the MIC in assay [1] and in assay [2] was over 66.7 µg/mL each time.
Take `O=C1CCC(=O)c2c1c(O)cc1c2-c2ccc(O)c3c(O)ccc-1c23` [Compound 5, truncatone C]: the MIC in assay [1] and in assay [2] was over 66.7 µg/mL in each case.

Values taken from paper PMC7277860, “Viridistratins A−C, Antimicrobial and Cytotoxic Benzo[j]fluoranthenes from Stromata of Annulohypoxylon viridistratum (Hypoxylaceae, Ascomycota)” (Biomolecules, 2020).
